Earlier results, collected in patent US6172066A, “Dihydropyrimidines and uses thereof” (Synaptic Pharmaceutical Corporation, priority 1997, dated 2001).
Read-outs that look alike come from different tables or passages of the source.

Assays:
[1] = in addition to its antihypertensive effects; cited from earlier work
[2] = cited from earlier work

Structure (SMILES)	side effects of clonidine [1]	side effects in BPH treatment ([2]; patients with BPH)	usefulness in treating BPH ([2]; patients with BPH)	side effects in BPH treatment ([2]; in vivo)
Clc1cccc(Cl)c1N=C1NCCN1 [clonidine]	dry mouth and sedation			
CC(COc1ccccc1)N(CCCl)Cc1ccccc1 (stereo not shown) [phenoxybenzamine]		significant side effects such as dizziness and asthenia	useful in relieving the symptoms of BPH	
COc1cc2nc(N3CCN(C(=O)c4ccco4)CC3)nc(N)c2cc1OC [prazosin]			useful for treating BPH	untoward side effects
COc1cc2nc(N3CCN(C(=O)C4CCCO4)CC3)nc(N)c2cc1OC (stereo not shown) [terazosin]		untoward side effects	useful for treating BPH	
